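1) Cells in 96-well plates. 2) Compound, 48 h, 5 concentrations. 3) Linear interpolation between surrounding doses. 4) Unreached endpoint = highest concentration. The concentration for full growth arrest is given as TGI.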

Assay in all cases: NCI tumour cell line growth inhibition, 48 h
For assay [1], the system named is CAKI-1 renal.
The test system of assay [2] is HL-60(TB) leukemia.
The test system of assay [3] is HOP-62 NSCLC.
Assay [4] has as its system K-562 leukemia.
The subject of assay [5] is KM12 colon.
The subject of assay [6] is MCF7 breast.
For assay [7], the system named is NCI/ADR-RES ovarian.
In assay [8] the test system is OVCAR-4 ovarian.
Assay [9] relates to SF-539 CNS.
Assay [10] relates to SK-MEL-2 melanoma.
In assay [11] the test system is SNB-19 CNS.
Assay [12] concerns RXF 393 renal.
The test system of assay [13] is UO-31 renal.
Assay [14] has as its system MDA-MB-231 breast.

Consider `COC1(C(C)(C)C)C=C(C(C)(C)C)P(=O)(O)O1` (centres undefined), for which the TGI in [1], in assay [2], in assay [3], in assay [4], in assay [5] and in [6] was > 100 µM throughout. For the same compound, the TGI in [7], in [8], in [9], in assay [10] and in assay [11] was > 100 µM each time.

As for `N=C(N)C1CN(CCc2cnc[nH]2)C(=O)NC1=O` (centres undefined), the TGI in [1], in assay [2], in [3], in assay [5], in [6] and in [8] was > 100 µM each time. Also, the TGI in assay [12], in assay [9], in assay [11] and in assay [13] was > 100 µM each time.

Take `O=C(O)c1c[nH]c2c(=O)[nH]cnc12`: the TGI in assay [1], in assay [2], in [3], in [4], in [5] and in assay [12] was > 100 µM throughout. Further, the TGI in assay [10], in assay [11] and in assay [13] was > 100 µM throughout.

As to `CC12CCC([C@H](N3CCOCC3)/C1=N\OCCN1CCCC1)C2(C)C` (some centres undefined), the TGI in [1], in assay [2], in assay [3], in assay [4], in assay [5] and in [8] was > 100 µM throughout. In addition, the TGI in assay [12], in [9], in [10], in assay [11] and in assay [13] was > 100 µM throughout.

As to `C[C@]12CCC3c4ccc(O)cc4CC[C@H]3C1CC(=O)N(N)C2=O` (some centres undefined), the TGI in [1], in assay [2], in assay [3], in assay [4], in [5] and in assay [6] was > 100 µM in each case. For the same compound, the TGI in assay [14], in assay [8], in [12], in assay [9], in assay [11] and in assay [13] was > 100 µM throughout.

For the compound `C=CCN1C(=O)CC1N(CC=C)S(=O)(=O)c1ccc(C)cc1` (centres undefined), the TGI in [1], in [2], in assay [4], in [5], in assay [6] and in [7] was > 100 µM throughout. Besides, the TGI in assay [8], in assay [12], in assay [11] and in assay [13] was > 100 µM in each case.

As for `COc1ccc(-c2cc(-c3ccc(Cl)cc3)n(C3OC(CO)C(O)C(O)C3O)c(=S)c2C#N)cc1` (centres undefined), the TGI in assay [3], in assay [4], in [5], in [14], in assay [8] and in [9] was > 100 µM each time. The figures for the TGI in [10], in [11] and in assay [13] were 97.9 µM, > 100 µM and > 100 µM, respectively.

Take `C#CCSc1nc(N)c2ncn(C3OC(CO)C(O)C3O)c2n1` (centres undefined): the TGI in assay [2], in [3], in assay [4], in [5], in [8] and in [12] was > 100 µM each time. For the same compound, the TGI in assay [11] and in assay [13] was > 100 µM in each case.

`O=C1c2cccc3cccc(c23)C(=O)N1CCCNCCCCNCCCN1C(=O)c2cccc3cccc(c23)C1=O`: the TGI worked out at 5.65 µM in assay [1]; 1.93 µM in assay [2]; 2.66 µM in assay [3]; 0.337 µM in assay [4]; 3.66 µM in [5]; 1.09 µM in assay [14]. Besides, the TGI is 32.3 µM in assay [7]; 1.93 µM in assay [8]; 0.698 µM in [12]; 1.57 µM in [9]; 1.89 µM in assay [10]; 4.35 µM in assay [11]. The compound further gave a TGI in assay [13] of 5.51 µM.

In the case of `O=C(C/C(=N\NC(=O)C[n+]1ccccc1)C(=O)Nc1nc2ccc([N+](=O)[O-])cc2s1)CC(c1ccccc1)c1c(O)c2ccccc2oc1=O` (centres undefined), the TGI in assay [1], in assay [2], in assay [3], in assay [4], in assay [5] and in assay [8] was > 100 µM in each case. Further, the TGI in assay [12], in [9], in assay [10], in [11] and in assay [13] was > 100 µM in each case.

As to `O=C(CC(=O)C(=O)Nc1ccccc1)CC(c1ccccc1)c1c(O)c2ccccc2oc1=O` (centres undefined), the TGI in assay [1], in [2], in assay [4], in assay [5], in assay [12] and in assay [9] was > 100 µM throughout. The TGI in assay [10], in [11] and in assay [13] was > 100 µM in each case.

For `C=C[C@@]1(C)CCC2(O)C(CCC3C2(C)CCC[C@@]3(C)COC(=O)CC(=O)OC)C1` (some centres undefined), the TGI in assay [1] was > 100 µM; in [2], 52.6 µM; in assay [3], 34 µM; in assay [4], 63.5 µM; in [5], 32.6 µM; in assay [8], 33.3 µM. Further, the TGI was 61.5 µM in assay [12], 36.1 µM in assay [9], > 100 µM in [11] and > 100 µM in assay [13].

Turning to `C=CCC1C(=O)C(C(=O)OC)N2CCc3c([nH]c4ccccc34)C12` (centres undefined), the TGI in assay [1], in assay [2], in assay [3], in [4], in assay [5] and in [8] was > 100 µM throughout. Also, the TGI in assay [12], in [9], in assay [10], in assay [11] and in assay [13] was > 100 µM each time.

(Values after PubChem BioAssay (NCI).)
